# Assay results: patent US11976083B2, “Inhibitors of peptidylarginine deiminases” (Gilead Sciences, Inc., priority 2020, dated 2024)
# Target: T1, human PAD4 (Homo sapiens, UniProt Q9UM07)
# T1 construct: human PAD4 (NM_012387), A2-P663, was PCR amplified; His-SUMO (N, cleaved yes); made in house; host or cells: E. coli BL21(DE3)
# Assay: In vitro PAD4 BAEE biochemical assay
# Settings: BAEE substrate 3 mM, 5 nM PAD4, 2 mM calcium chloride; geometric mean of multiple experiments
# Outline: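 Recombinant human PAD4 (5 nM final) with 2 mM CaCl2 was preincubated with compound 30 min at 25 °C in MOPS buffer pH 7.6, then reacted with 3 mM BAEE for 2 h at 25 °C. After EDTA stop, released ammonia was detected by o-phthalaldehyde/DTT fluorescence (ex 405/em 535 nm); IC50 from four-parameter fit, geometric mean.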
# T1 sequence (Q9UM07 2-663): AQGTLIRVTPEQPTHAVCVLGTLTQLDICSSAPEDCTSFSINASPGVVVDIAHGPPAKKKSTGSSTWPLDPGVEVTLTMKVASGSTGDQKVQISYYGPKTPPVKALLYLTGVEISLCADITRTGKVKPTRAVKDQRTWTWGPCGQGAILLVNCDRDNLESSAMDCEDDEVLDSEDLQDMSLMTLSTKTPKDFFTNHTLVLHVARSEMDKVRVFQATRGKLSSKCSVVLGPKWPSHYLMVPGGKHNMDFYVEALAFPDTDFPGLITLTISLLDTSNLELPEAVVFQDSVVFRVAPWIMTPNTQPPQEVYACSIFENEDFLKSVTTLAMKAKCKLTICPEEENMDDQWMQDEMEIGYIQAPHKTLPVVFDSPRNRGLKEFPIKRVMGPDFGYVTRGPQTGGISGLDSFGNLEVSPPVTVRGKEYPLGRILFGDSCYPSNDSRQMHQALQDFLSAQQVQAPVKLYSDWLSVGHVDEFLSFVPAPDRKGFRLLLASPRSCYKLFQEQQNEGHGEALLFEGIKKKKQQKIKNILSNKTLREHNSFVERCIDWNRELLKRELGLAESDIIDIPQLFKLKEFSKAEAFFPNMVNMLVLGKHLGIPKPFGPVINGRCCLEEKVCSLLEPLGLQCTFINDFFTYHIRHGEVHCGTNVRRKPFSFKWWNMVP
row,Structure (SMILES),IC50 [nM]
1,"COc1cc(C(=O)N[C@@H]2CC[C@H](C)NC2)cc2nc(-c3cc4ccc5nc4n3CCCCCCC3(CC3)C(=O)N[C@@H]5C)n(C)c12 [Example 72, 7-methoxy-1-methyl-2-[(11~{R})-11-methyl-9-oxo-spiro[1,10,19-triazatricyclo[10.5.2.0^{15,18}]nonadeca-12(19),13,15(18),16-tetraene-8,1′-cyclopropane]-17-yl]-~{N}-[(3~{R},6~{S})-6-methyl-3-piperidyl]benzimidazole-5-carboxamide]",308
2,"COc1cc(C(=O)N[C@@H]2CC[C@H](C)NC2)cc2nc(-c3cc4ccc5nc4n3CCCCCCC(C)(C)C(=O)N[C@@H]5C)n(C)c12 [Example 73, 7-methoxy-1-methyl-~{N}-[(3~{R},6~{S})-6-methyl-3-piperidyl]-2-[(11~{R})-8,8,11-trimethyl-9-oxo-1,10,19-triazatricyclo[10.5.2.0^{15,18}]nonadeca-12(19),13,15(18),16-tetraen-17-yl]benzimidazole-5-carboxamide]",125
3,"COc1cc(C(=O)N[C@H]2CNCC[C@@H]2F)cc2nc(-c3cc4ccc5nc4n3CCCCCCC3(CC3)C(=O)N[C@@H]5C)n(C)c12 [Example 74, ~{N}-[(3~{S},4~{S})-4-fluoro-3-piperidyl]-7-methoxy-1-methyl-2-[(11~{R})-11-methyl-9-oxo-spiro[1,10,19-triazatricyclo[10.5.2.0^{15,18}]nonadeca-12(19),13,15(18),16-tetraene-8,1′-cyclopropane]-17-yl]benzimidazole-5-carboxamide]",221
4,"COc1cc(C(=O)N[C@H]2CNCC[C@@H]2F)cc2nc(-c3cc4ccc5nc4n3CCCCCCC(C)(C)C(=O)N[C@@H]5C)n(C)c12 [Example 75, ~{N}-[(3~{S},4~{S})-4-fluoro-3-piperidyl]-7-methoxy-1-methyl-2-[(11~{R})-8,8,11-trimethyl-9-oxo-1,10,19-triazatricyclo[10.5.2.0^{15,18}]nonadeca-12(19),13,15(18),16-tetraen-17-yl]benzimidazole-5-carboxamide]",103
5,"COc1cc(C(=O)N[C@H]2CNCC[C@@H]2F)cc2nc(-c3cc4ccc5nc4n3CCCCCC(C)(C)C(=O)N[C@@H]5C)n(C)c12 [Example 76, ~{N}-[(3~{S),4~{S})-4-fluoro-3-piperidyl]-7-methoxy-1-methyl-2-[(10~{R})-7,7,10-trimethyl-8-oxo-1,9,18-triazatricyclo[9.5.2.0^{14,17}]octadeca-11(18),12,14(17),15-tetraen-16-yl]benzimidazole-5-carboxamide]",87
6,"COc1cc(C(=O)N[C@@H]2CCCCNC2)cc2nc(-c3cc4ccc5nc4n3CCCCCCC3(CC3)C(=O)N[C@@H]5C)n(C)c12 [Example 77, ~{N}-[(3~{R})-azepan-3-yl]-7-methoxy-1-methyl-2-[(11~{R})-11-methyl-9-oxo-spiro[1,10,19-triazatricyclo[10.5.2.0^{15,18}]nonadeca-12(19),13,15(18),16-tetraene-8,1′-cyclopropane]-17-yl]benzimidazole-5-carboxamide]",367
7,"COc1cc(C(=O)N[C@@H]2CCCCNC2)cc2nc(-c3cc4ccc5nc4n3CCCCCCC(C)(C)C(=O)N[C@@H]5C)n(C)c12 [Example 78, ~{N}-[(3~{R})-azepan-3-yl]-7-methoxy-1-methyl-2-[(11~{R})-8,8,11-trimethyl-9-oxo-1,10,19-triazatricyclo[10.5.2.0^{15,18}]nonadeca-12(19),13,15(18),16-tetraen-17-yl]benzimidazole-5-carboxamide]",80
8,"COc1cc(C(=O)N2CC[C@H]3CCN[C@H]3C2)cc2nc(-c3cc4ccc5nc4n3CCCCCCC(C)(C)C(=O)N[C@@H]5C)n(C)c12 [Example 79, (11~{R})-17-[5-[(3~{a}~{R},7~{a}~{R})-1,2,3,3~{a},4,5,7,7~{a}-octahydropyrrolo[2,3-c]pyridine-6-carbonyl]-7-methoxy-1-methyl-benzimidazol-2-yl]-8,8,11-trimethyl-1,10,19-triazatricyclo[10.5.2.0^{15,18}]nonadeca-12(19),13,15(18),16-tetraen-9-one]",76
9,"COc1cc(C(=O)N2C[C@H]3CCCN[C@H]3C2)cc2nc(-c3cc4ccc5nc4n3CCCCCCC(C)(C)C(=O)N[C@@H]5C)n(C)c12 [Example 80, (11~{R})-17-[5-[(4~{a}~{R},7~{a}~{R})-1,2,3,4,4~{a},5,7,7~{a}-octahydropyrrolo[3,4-b]pyridine-6-carbonyl]-7-methoxy-1-methyl-benzimidazol-2-yl]-8,8,11-trimethyl-1,10,19-triazatricyclo[10.5.2.0^{15,18}]nonadeca-12(19),13,15(18),16-tetraen-9-one]",255
10,"COc1cc(C(=O)N2CC[C@@H]3CCN[C@@H]3C2)cc2nc(-c3cc4ccc5nc4n3CCCCCCC(C)(C)C(=O)N[C@@H]5C)n(C)c12 [Example 81, (11~{R})-17-[5-[(3~{a}~{S},7~{a}~{S})-1,2,3,3~{a},4,5,7,7~{a}-octahydropyrrolo[2,3-c]pyridine-6-carbonyl]-7-methoxy-1-methyl-benzimidazol-2-yl]-8,8,11-trimethyl-1,10,19-triazatricyclo[10.5.2.0^{15,18}]nonadeca-12(19),13,15(18),16-tetraen-9-one]",505
11,"COc1cc(C(=O)N[C@H]2CNCC[C@H]2OC)cc2nc(-c3cc4ccc5nc4n3CCCCCCC(C)(C)C(=O)N[C@@H]5C)n(C)c12 [Example 82, 7-methoxy-~{N}-[(3~{S},4~{R})-4-methoxy-3-piperidyl]-1-methyl-2-[(11~{R})-8,8,11-trimethyl-9-oxo-1,10,19-triazatricyclo[10.5.2.0^{15,18}]nonadeca-12(19),13,15(18),16-tetraen-17-yl]benzimidazole-5-carboxamide]",8110
12,"COc1cc(C(=O)N2[C@H]3CC[C@@H]2[C@H](N)C3)cc2nc(-c3cc4ccc5nc4n3CCCCCCOc3ncccc3-5)n(C)c12 [Example 83, [(1~{R},2~{R},4~{S})-2-amino-7-azabicyclo[2.2.1]heptan-7-yl]-[7-methoxy-1-methyl-2-(8-oxa-6,15,21-triazatetracyclo[13.5.2.0^{2,7}.0^{18,22}]docosa-1(21),2,4,6,16,18(22),19-heptaen-16-yl)benzimidazol-5-yl]methanone]",204
13,"COc1cc(C(=O)N2[C@H]3CC[C@@H]2[C@H](N)C3)cc2nc(-c3cc4ccc5nc4n3CCCCCCC(=O)Nc3ncccc3-5)n(C)c12 [Example 84, 17-[5-[(1~{R},2~{R},4~{S})-2-amino-7-azabicyclo[2.2.1]heptane-7-carbonyl]-7-methoxy-1-methyl-benzimidazol-2-yl]-6,8,16,22-tetrazatetracyclo[14.5.2.0^{2,7}.0^{19,23}] tricosa-1(22),2,4,6,17,19(23),20-heptaen-9-one]",89
14,"COc1cc(C(=O)N2[C@H]3CC[C@@H]2[C@H](N)C3)cc2nc(-c3cc4ccc5nc4n3CCCCCCCOc3ncccc3-5)n(C)c12 [Example 85, [(1˜{R},2˜{R},4˜{S})-2-amino-7-azabicyclo[2.2.1]heptan-7-yl]-[7-methoxy-1-methyl-2-(8-oxa-6,16,22-triazatetracyclo[14.5.2.0^{2,7}.0^{19,23}]tricosa-1(22),2,4,6,17,19(23),20-heptaen-17-yl)benzimidazol-5-yl]methanone]",406
